This series is described as follows: Pharmacokinetic property (plasma concentration), crossover, tablets (FIG. 3). The format is in vivo. The settings on record: male beagle dogs, tablets with Samples 5 to 7. The method, then:
A crossover design of taking all three tablets (active ingredients having a particle size of Samples 5 to 7) was applied to this experimentation, and the three tablets were administered to male beagle dogs once each with a 14-day wash-out period. Each dose was taken with 50 mL of water while maintaining the fasted state for at least 14 hours. The results are represented in FIG. 3.

The results in this text go back to patent US20240207242A1, “PHARMACEUTICAL COMPOSITION COMPRISING SPHINGOSINE-1-PHOSPHATE RECEPTOR AGONIST WITH CONTROLLED PARTICLE SIZE” (LG CHEM, LTD., priority 2021, published 2024).

Structures can show the parent of a compound that is named as a salt.

Take `CC(C)n1nc(Cl)c2cc(COc3ccc4c(c3)CCC(CN3CCC(C(=O)O)CC3)=C4Cl)ccc21` [API, 1-[1-chloro-6-(3-chloro-1-isopropyl-1H-indazol-5-ylmethoxy)-3,4-dihydro-naphthalen-2-ylmethyl]-piperidine-4-carboxylic acid hydrochloride]: the “particle size d(0.9) based on Cmax to show bioequivalence in terms of pharmacokinetics” value is recorded as no more than 60 μm.
